In PubChem BioAssay (NCI):
Where “and” joins values, the source holds several entries; their conditions need not be identical. Equal values may be shown once.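 A five-concentration, 48-hour dose response in 96-well plates underlies each endpoint, interpolated linearly between surrounding concentrations. Abbreviation: GI50, concentration required for 50% inhibition of growth. The concentration for full growth arrest is given as TGI.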

Tests used:
Assay in all cases: DTP human tumour cell line panel, 48 h
EKVX NSCLC = tested on: EKVX NSCLC
DU-145 prostate = tested on: DU-145 prostate
SK-MEL-5 melanoma = tested on: SK-MEL-5 melanoma
RPMI-8226 leukemia = tested on: RPMI-8226 leukemia
SF-295 CNS = tested on: SF-295 CNS
CAKI-1 renal = tested on: CAKI-1 renal
MCF7 breast = tested on: MCF7 breast
OVCAR-8 ovarian = tested on: OVCAR-8 ovarian
TK-10 renal = tested on: TK-10 renal
K-562 leukemia = tested on: K-562 leukemia

Row | SMILES | GI50 (EKVX NSCLC) [µM] | TGI (EKVX NSCLC) [µM] | GI50 (DU-145 prostate) | TGI (DU-145 prostate) [µM] | GI50 (SK-MEL-5 melanoma) | TGI (SK-MEL-5 melanoma) [µM] | GI50 (RPMI-8226 leukemia) [µM] | TGI (RPMI-8226 leukemia) [µM] | GI50 (SF-295 CNS) [µM] | TGI (SF-295 CNS) [µM] | GI50 (CAKI-1 renal) [µM] | TGI (CAKI-1 renal) [µM] | GI50 (MCF7 breast) [µM] | TGI (MCF7 breast) [µM] | GI50 (OVCAR-8 ovarian) [µM] | TGI (OVCAR-8 ovarian) [µM] | GI50 (TK-10 renal) [µM] | TGI (TK-10 renal) [µM] | GI50 (K-562 leukemia) [µM] | TGI (K-562 leukemia) [µM]
1 | CC(C)(C)N1CCC1C(N)=O (stereo unspecified) | > 100 | > 100 | > 100 µM | > 100 | > 100 µM | > 100 | > 100 | > 100 | > 100 | > 100 | > 100 | > 100 | > 100 | > 100 | > 100 | > 100 | > 100 | > 100 | > 100 | > 100
2 | CC(=O)Nc1ccc(/C=C/[N+](=O)[O-])cc1 | – | 12.9 | – | > 43.4 | – | 5.97 | – | 4.73 | – | 14 | – | 2.78 | – | 9.72 | – | 15.4 | – | 6.89 | – | 8.57
3 | Nc1ccccc1C#C/C=C\C#Cc1ccccc1C(F)(F)F | 0.895 | 15.2 | 2.7 µM | 14.7 | 0.841 µM | 6.3 | 1.46 | > 51 | 0.958 | 3.62 | 1.1 | 10.1 | 1.56 | > 47.5 | 1.32 | 20.6 | 8.3 | 27.9 | 1.07 | 3.74
4 | O=C(/C=C/c1cccnc1)NCCCCC1CCN(C(=O)c2ccccc2)CC1 | > 66.9 | > 100 | 0.0234 µM and < 0.0315 µM | > 100 | 35.3 µM and 21.8 µM | > 100 | – | > 100 | < 0.0256 | > 100 | > 100 | > 100 | – | > 100 | < 0.01 | > 100 | > 100 | > 100 | < 0.01 | > 100
5 | OC1(C(O)(c2ccc(-c3ccccc3)cc2)c2ccc(-c3ccccc3)cc2)CCCCC1 | – | > 100 | – | > 100 | – | > 100 | – | > 100 | – | > 100 | – | > 100 | – | > 100 | – | > 100 | – | > 100 | – | > 100
6 | CC[C@]1(O)CC2CN(CCc3c([nH]c4ccccc34)[C@@](C(=O)OC)(c3cc4c(cc3OC)N(C)[C@H]3[C@@](O)(C(=O)OC)[C@H](OC(C)=O)[C@]5(CC)C=CCN6CC[C@]43[C@@H]65)C2)C1 (stereo partly specified) | 0.00956 | > 50 | < 0.005 µM | 0.0282 | < 0.005 µM | 0.0607 | < 0.005 | 8.48 | < 0.005 | 6.03 | 0.0804 | 21.6 | < 0.005 | 6.07 | < 0.005 | > 34.6 | 0.148 | 13.9 | < 0.005 | 2.26
7 | O=C1CCC(Cc2ccc(Cl)cc2Cl)C(=O)N1 (stereo unspecified) | – | > 100 | – | > 100 | – | > 100 | – | > 100 | – | > 100 | – | > 100 | – | > 100 | – | > 100 | – | > 100 | – | > 100
8 | OCc1cn(Cc2cccc(Cl)c2)c2ccccc12 | 17.3 | 56.1 | 11.6 µM | 47.8 | 11 µM | 23.7 | 0.632 | 20 | 0.145 | 14.5 | – | 1.87 | 0.0488 | 27.8 | 10.9 | 66.9 | < 0.0145 | 0.21 | 1.99 | 31.9
9 | Cc1c(N=Nc2ccc([N+](=O)[O-])cc2)nc2scc(-c3ccccc3)n12 | – | > 100 | – | > 100 | – | > 100 | – | > 100 | – | > 100 | – | > 100 | – | > 100 | – | > 100 | – | > 100 | – | > 100
10 | NC(=O)c1cnc(N[C@@H]2CCCC[C@@H]2N)nc1Nc1cccc(-n2nccn2)c1 | 6.04 | 18.9 | 3.84 µM | 15.8 | 5.37 µM | 18 | 6.7 | 23 | 13.3 | 26.7 | 2.47 | 8.09 | 2.33 | 10.2 | 6.6 | 20 | 5.55 | 17.8 | 3.94 | 14.7
11 | COc1ccc(/C=C/C(=O)c2cc3c(N)c(C(=O)Nc4ccccc4Cl)sc3nc2C)cc1 | 2.25 | > 50 | 2.78 µM | > 50 | 1.36 µM | 8.79 | 5.72 | > 50 | 3 | > 50 | 7.51 | > 50 | 0.25 | 22 | 2.04 | 11 | 2.64 | 30.5 | 2.49 | > 50
12 | O=C(/C=C/c1ccc(OCC(=O)N2CCN(c3ccccc3)CC2)cc1)c1ccc(Cl)cc1 | – | > 83.9 | – | > 100 | – | > 100 | – | > 100 | – | 54.7 | – | > 100 | – | > 100 | – | > 100 | – | > 90.6 | – | > 100
13 | Cc1cn(C2CC(F)C(CO)O2)c(=O)[nH]c1=O (stereo unspecified) | > 100 | > 100 | > 100 µM | > 100 | > 100 µM | > 100 | > 100 | > 100 | – | – | > 100 | > 100 | > 100 | > 100 | > 100 | > 100 | > 100 | > 100 | > 100 | > 100
14 | CCOP(=O)(OCC)C(NC(c1ccccc1)c1ccccc1)c1ccccc1 (stereo unspecified) | 13.4 | 28.5 | 15 µM | 30 | 19 µM | 33.3 | 4.18 | 22.3 | 2.05 | 14.8 | 10.4 | 22.2 | 15.9 | 31.9 | 16.3 | 33.6 | 14.7 | 28.2 | 7.4 | 22.2
15 | C(=N\Nc1ccccn1)/c1ccccn1 | 0.348 | > 100 | 0.324 µM | – | – | – | 6.17 | > 100 | 0.359 | > 41.3 | 0.257 | > 50.7 | 0.401 | > 100 | 0.411 | > 100 | – | > 100 | 0.412 | > 100
